Test results: patent publication US4181803A, “Propiophenone derivatives and preparation thereof” (Eisai Co., Ltd., priority 1973, dated 1980)

Experiments:
[1] = system: motor function and maintenance of righting reflex; experiment: animal or person; assay type: in vivo, male d,d-strain mice; details: Mus musculus, po, 1 h, read-out: Motor Ataxia, ED50
Method: (§1) Male d,d-strain mice weighing 18 to 22 grs. were used for the experiments.
(§2) Groups of each 10 mice were treated orally and intraperitoneally with a wide range of doses of the above-mentioned compounds or saline.
The numerals given in the following Table 1 indicate ED50 values (in mg/kg) which were calculated 60 minutes after the oral administration of the compounds under test.

[2] = system: mice; experiment: Acute toxicity (24-hour mortality); assay type: in vivo; details: oral, from Table 1
Method: as §1, §2
The mortality ensued during 24 hours after the oral administration was recorded to determine acute toxicity of the compound under test on the mice.

[3] = system: isolated smooth muscle preparations; experiment: Smooth muscle-relaxing activity on isolated smooth muscle preparations
Text: Additionally, anti-histamine, anti-acetylcholine, anti-serotonin and smooth muscle-relaxing activities of the compounds under test were examined on isolated smooth muscle preparations

`CCCc1ccc(C(=O)C(C)CN2CCCCC2)cc1.Cl` (stereo not shown) [Compound B, 4'-n-propyl-2-methyl-3-piperidino-propiophenone hydrochloride] was tested, and the ED50 [1] was 800 mg/kg, the “acute toxicity compared with Compound under control (in words)” value [2] was “almost equivalent” and the “smooth muscle-relaxant activity (in words)” value [3] was “strong”.

For `Cc1ccc(C(=O)C(C)CN2CCCCC2)cc1.Cl` (stereo not shown) [Compound for control, 2,4'-dimethyl-3-piperidino-propiophenone hydrochloride, reference compound], the ED50 [1] was 800 mg/kg and the “smooth muscle-relaxant activity (in words)” value [3] was “weak”.

With `CC(CN1CCCCC1)C(=O)c1ccc(C(C)C)cc1.Cl` (stereo not shown) [Compound C, 4'-isopropyl-2-methyl-3-piperidino-propiophenone hydrochloride] the ED50 [1] was 84 mg/kg and the “smooth muscle-relaxant activity (in words)” value [3] was “strong”.

In the case of `CCc1ccc(C(=O)C(C)CN2CCCCC2)cc1.Cl` (stereo not shown) [Compound A, 4'-ethyl-2-methyl-3-piperidino-propiophenone hydrochloride], the ED50 [1] is reported as 640 mg/kg, the “acute toxicity compared with Compound under control (in words)” value [2] is reported as “slightly stronger” and the “smooth muscle-relaxant activity (in words)” value [3] is reported as “strong”.
